Experimental findings from patent publication US10457687B2, “Aminoacid derivatives, a process for their preparation and pharmaceutical compositions containing them” (LES LABORATOIRES SERVIER, priority 2015, dated 2019) are described below.

In the first experiment the target is Mcl-1 protein (Homo sapiens, UniProt Q07820). As to the kind of experiment: Inhibition of Mcl-1 by the fluorescence polarisation technique (Method 1 or Method 2). Type of experiment: binding. To be noted: fluorescence polarisation, Fluorescein labelled ligand; Method 1 (not underlined) or Method 2 (underlined); read-out: IC50 (μM) Mcl-1 FP. As to the method: The relative binding potency of each compound was determined via Fluorescence Polarisation (FP).
Sequence of Mcl-1 protein (Q07820 whole entry): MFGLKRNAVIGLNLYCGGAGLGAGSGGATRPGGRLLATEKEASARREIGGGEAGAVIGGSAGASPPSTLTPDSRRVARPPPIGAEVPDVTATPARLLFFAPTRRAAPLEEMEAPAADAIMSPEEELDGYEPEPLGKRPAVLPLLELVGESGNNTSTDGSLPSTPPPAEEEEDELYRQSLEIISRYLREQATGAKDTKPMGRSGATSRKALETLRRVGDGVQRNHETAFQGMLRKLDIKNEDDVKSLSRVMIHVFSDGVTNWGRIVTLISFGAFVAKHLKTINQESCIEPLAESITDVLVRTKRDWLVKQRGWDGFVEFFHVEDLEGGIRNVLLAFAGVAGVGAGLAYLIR
An 11 point serial dilution of each compound was prepared in DMSO and 2 μl transferred into flat bottomed, low binding, 384-well plate (final DMSO concentration 5%). 38 μl of buffer (10 mM 4-(2-hydroxyethyl)-1-piperazineethanesulfonic acid [HEPES], 150 mM NaCl, 0.05% Tween 20, pH 7.4), containing the Fluorescein labelled ligand (final concentration 1 nM) and Mcl-1 protein (final concentration 5 nM) was then added.
An 11 point serial dilution of each compound was prepared in DMSO and 2 μl transferred into flat bottomed, low binding, 384-well plate (final DMSO concentration 5%). 38 μl of buffer (20 mM Na2HPO4, 1 mM EDTA, 50 mM NaCl, pH 7.4), containing the Fluorescein labelled ligand (final concentration 10 nM) and Mcl-1 protein (final concentration 10 nM) was then added.
By IC50 is commonly meant the midpoint of a concentration-inhibition curve. Regarding `CCc1sc2ncnc(N[C@H](Cc3cn(C)cn3)C(=O)O)c2c1-c1cccc2ccccc12` [Example 194, N-[6-ethyl-5-(naphthalen-1-yl)thieno[2,3-d]pyrimidin-4-yl]-1-methyl-D-histidine], the IC50 was found to be 1.75 µM.

For `CCc1sc2ncnc(N[C@H](Cc3ccccc3)C(=O)O)c2c1-c1cccc2cc[nH]c12` (single isomer, unassigned) [Example 72, N-[6-ethyl-5-(1H-indol-7-yl)thieno[2,3-d]pyrimidin-4-yl]-D-phenylalanine], the IC50 was 12 µM.

On to `CC=Cc1sc2ncnc(NC(Cc3ccccc3)C(=O)O)c2c1-c1cccc2ccccc12` [Example 109, N-{(5Ra)-5-(naphthalen-1-yl)-6-[(1E)-prop-1-en-1-yl]thieno[2,3-d]pyrimidin-4-yl}-D-phenylalanine], for which the IC50 came to 1.86 µM.

In the case of `CCc1sc2ncnc(NC(Cc3ccccn3)C(=O)O)c2c1-c1cccc2c1c(Cl)cn2CCN1CCN(C)CC1` [Example 249, N-((5Ra)-5-{3-chloro-1-[2-(4-methylpiperazin-1-yl)ethyl]-1H-indol-4-yl}-6-ethyl-thieno[2,3-d]pyrimidin-4-yl)-3-pyridin-2-yl-D-alanine], the IC50 came to 36.8 µM.

For `CCc1sc2ncnc(NC(CC3CCCCC3)C(=O)O)c2c1-c1cccc2ccccc12` [Example 165, 3-cyclohexyl-N-[6-ethyl-(5Ra)-5-(naphthalen-1-yl)thieno[2,3-d]pyrimidin-4-yl]-D-alanine], the IC50 stood at 0.315 µM.

On to `CCc1sc2ncnc(NC(Cc3ccccc3)C(=O)O)c2c1-c1cccc2c1c(Cl)cn2CCN1CCN(C)CC1` [Example 238, N-((5Sa)-5-{3-chloro-1-[2-(4-methylpiperazin-1-yl)ethyl]-1H-indol-4-yl}-6-ethyl-thieno[2,3-d]pyrimidin-4-yl)-D-phenylalanine], for which the IC50 stood at 2.78 µM.

For `CCc1sc2ncnc(NC(Cc3ccccc3OCCN3CCN(C)CC3)C(=O)O)c2c1-c1cccc(Cl)c1C` [Example 154, N-[(5Sa)-5-(3-chloro-2-methylphenyl)-6-ethylthieno[2,3-d]pyrimidin-4-yl]-2-[2-(4-methylpiperazin-1-yl)ethoxy]-D-phenylalanine], the IC50 amounted to 2.32 µM.

Regarding `CCc1sc2ncnc(NC(Cc3ccccc3)C(=O)O)c2c1-c1cccc(Br)c1C` [Example 96, N-[(5Ra)-5-(3-bromo-2-methylphenyl)-6-ethylthieno[2,3-d]pyrimidin-4-yl]-D-phenylalanine], the IC50 was 1.63 µM.

As to `CCc1sc2ncnc(NC(Cc3cccnc3)C(=O)O)c2c1-c1cccc2ccccc12` [Example 162, N-[6-ethyl-(5Sa)-5-(naphthalen-1-yl)thieno[2,3-d]pyrimidin-4-yl]-3-pyridin-3-yl-D-alanine], the IC50 was found to be 0.597 µM.

On to `CCc1sc2ncnc(NC(Cc3ccccc3)C(=O)O)c2c1-c1ccc(OCCCN2CCN(C)CC2)c(Cl)c1C` [Example 64, N-((5Sa)-5-{3-chloro-2-methyl-4-[3-(4-methylpiperazin-1-yl)propoxy]phenyl}-6-ethylthieno[2,3-d]pyrimidin-4-yl)-D-phenylalanine], for which the IC50 was determined as 0.025 µM.

Consider `CCc1sc2ncnc(NC(Cc3ccccc3O)C(=O)O)c2c1-c1cccc2ccccc12` [Example 175, N-[6-ethyl-(5Ra)-5-(naphthalen-1-yl)thieno[2,3-d]pyrimidin-4-yl]-2-hydroxy-D-phenylalanine], for which the IC50 was 3.86 µM.

As for `CCc1sc2ncnc(NC(Cc3ccccc3Br)C(=O)O)c2c1-c1cccc(Cl)c1C` [Example 140, 2-bromo-N-[(5Sa)-5-(3-chloro-2-methylphenyl)-6-ethylthieno[2,3-d]pyrimidin-4-yl]-D-phenylalanine], the IC50 worked out at 0.208 µM.

For `CCc1sc2ncnc(NC(Cc3ccccc3OCC(=O)N(C)C)C(=O)O)c2c1-c1cccc(Cl)c1C` [Example 142, N-[(5Sa)-5-(3-chloro-2-methylphenyl)-6-ethylthieno[2,3-d]pyrimidin-4-yl]-2-[2-(dimethylamino)-2-oxoethoxy]-D-phenylalanine], the IC50 was determined as 0.335 µM.

Consider `O=C(O)[C@@H](Cc1ccccc1)Nc1ncnc2sc(C(F)F)c(-c3cccc4ccccc34)c12` (single isomer, unassigned) [Example 207, N-[6-(difluoromethyl)-5-(naphthalen-1-yl)thieno[2,3-d]pyrimidin-4-yl]-D-phenylalanine], for which the IC50 came to 0.136 µM.

On to `CCc1sc2ncnc(NC(Cc3ccccc3F)C(=O)O)c2c1-c1cccc2ccccc12` [Example 180, N-[6-ethyl-(5Ra)-5-(naphthalen-1-yl)thieno[2,3-d]pyrimidin-4-yl]-2-fluoro-D-phenylalanine], for which the IC50 amounted to 2.1 µM.

Take `C=C(C)c1sc2ncnc(NC(Cc3ccccc3)C(=O)O)c2c1-c1cccc2ccccc12` [Example 107, N-[(5Ra)-5-(naphthalen-1-yl)-6-(prop-1-en-2-yl)thieno[2,3-d]pyrimidin-4-yl]-D-phenylalanine]: the half-maximal inhibitory concentration (IC50) is 0.544 µM.

Turning to `CCc1sc2ncnc(N[C@H](Cc3ccccc3)C(=O)O)c2c1-c1cccc(O)c1C` [Example 67, N-[6-ethyl-5-(3-hydroxy-2-methylphenyl)thieno[2,3-d]pyrimidin-4-yl]-D-phenylalanine], the IC50 came to 2.08 µM.

Take `CCc1sc2ncnc(NC(Cc3ccccn3)C(=O)O)c2c1-c1cccc(Cl)c1C` [Example 152, N-[(5Sa)-5-(3-chloro-2-methylphenyl)-6-ethylthieno[2,3-d]pyrimidin-4-yl]-3-pyridin-2-yl-D-alanine]: the IC50 stood at 0.047 µM.

For the compound `CCCc1sc2ncnc(NC(Cc3ccccc3)C(=O)O)c2c1-c1cccc2ccccc12` [Example 252, N-[(5Sa)-5-(naphthalen-1-yl)-6-propylthieno[2,3-d]pyrimidin-4-yl]-D-phenylalanine], the IC50 was determined as 0.223 µM.

As for `CCc1sc2ncnc(NC(Cc3cccc(F)c3)C(=O)O)c2c1-c1cccc2ccccc12` [Example 178, N-[6-ethyl-(5Ra)-5-(naphthalen-1-yl)thieno[2,3-d]pyrimidin-4-yl]-3-fluoro-D-phenylalanine], the IC50 amounted to 3.23 µM.

With `CCc1sc2ncnc(NC(Cc3ccccc3)C(=O)O)c2c1-c1cccc2ccccc12` [Example 101, N-[6-ethyl-(5Sa)-5-(naphthalen-1-yl)thieno[2,3-d]pyrimidin-4-yl]-D-phenylalanine], the IC50 was determined as 0.462 µM.

The same experiment, now with this note: partial inhibitors; @ 10 μM test compound.
Consider `Cc1c(-c2c(-c3ccsc3)sc3ncnc(NC(Cc4ccccc4F)C(=O)O)c23)ccc(OCCN2CCN(C)CC2)c1Cl` [Example 33, N-[(5Ra)-5-{3-chloro-2-methyl-4-[2-(4-methylpiperazin-1-yl)ethoxy]phenyl}-6-(thiophen-3-yl)thieno[2,3-d]pyrimidin-4-yl]-2-fluoro-D-phenylalanine], for which the “percentage fluorescence polarisation inhibition, Mcl-1 FP” value was 54.9% @ 10 μM.

Turning to `Cc1c(Cl)cccc1-c1c(C(C)C)sc2ncnc(N[C@H](Cc3ccccc3)C(=O)O)c12` [Example 220, N-[(5Ra)-5-(3-chloro-2-methylphenyl)-6-(propan-2-yl)thieno[2,3-d]pyrimidin-4-yl]-D-phenylalanine], the “percentage fluorescence polarisation inhibition, Mcl-1 FP” value is on record as 31.7% @ 10 μM.

In the case of `Cc1c(Cl)cccc1-c1c(C2CC2)sc2ncnc(NC(Cc3ccccc3)C(=O)O)c12` [Example 216, N-[(5Ra)-5-(3-chloro-2-methylphenyl)-6-cyclopropyl-thieno[2,3-d]pyrimidin-4-yl]-D-phenylalanine], the “percentage fluorescence polarisation inhibition, Mcl-1 FP” value is reported as 58.95% @ 10 μM.

The experiment is the same for the next values; noted with them: partial inhibitors; @ 50 μM test compound.
As to `CCc1sc2ncnc(NC(Cc3ccccc3)C(=O)O)c2c1-c1cccc2c1c(Cl)cn2CCN1CCCCC1` [Example 234, N-((5Ra)-5-{3-chloro-1-[2-(piperidin-1-yl)ethyl]-1H-indol-4-yl}-6-ethyl-thieno[2,3-d]pyrimidin-4-yl)-D-phenylalanine], the “percentage fluorescence polarisation inhibition, Mcl-1 FP” value came to 68.7% @ 50 μM.

Consider `CCc1sc2ncnc(N[C@H](Cc3ccccc3C#N)C(=O)O)c2c1-c1cccc(Cl)c1C` [Example 126, N-[(5Ra)-5-(3-chloro-2-methylphenyl)-6-ethylthieno[2,3-d]pyrimidin-4-yl]-2-cyano-D-phenylalanine], for which the “percentage fluorescence polarisation inhibition, Mcl-1 FP” value is 41.2% @ 50 μM.

As to `CCc1sc2ncnc(N[C@H](Cc3ccccc3OCCCN(C)C)C(=O)O)c2c1-c1cccc(Cl)c1C` [Example 157, N-[(5Ra)-5-(3-chloro-2-methylphenyl)-6-ethylthieno[2,3-d]pyrimidin-4-yl]-2-[3-(dimethylamino)propoxy]-D-phenylalanine], the “percentage fluorescence polarisation inhibition, Mcl-1 FP” value came out at 62.05% @ 50 μM.

Still in this experiment, the particulars now being: partial inhibitors; @ 100 μM test compound; 100 µM.
Consider `CC(O)c1sc2ncnc(N[C@H](Cc3ccccc3)C(=O)O)c2c1-c1cccc2ccccc12` (single isomer, unassigned) [Example 204, N-[6-(1-hydroxyethyl)-5-(naphthalen-1-yl)thieno[2,3-d]pyrimidin-4-yl]-D-phenylalanine], for which the “percentage fluorescence polarisation inhibition, Mcl-1 FP” value came to 44.8% @ 100 μM.

The same experiment, now with this note: partial inhibitors; @ 200 μM test compound.
In the case of `CC(C)(O)c1sc2ncnc(NC(Cc3ccccc3)C(=O)O)c2c1-c1cccc2ccccc12` [Example 209, N-[6-(2-hydroxypropan-2-yl)-(5Ra)-5-(naphthalen-1-yl)thieno[2,3-d]pyrimidin-4-yl]-D-phenylalanine], the “percentage fluorescence polarisation inhibition, Mcl-1 FP” value was found to be 56.85% @ 200 μM.

Staying with this experiment, now noted: partial inhibitors; @ 200 μM test compound; read-out: percentage fluorescence polarisation inhibition, Mcl-1 FP.
In general, inhibition refers to the change of the read-out against control, counted positive when it falls. With `CCc1sc2ncnc(N[C@H](Cc3ccccc3)C(=O)O)c2c1-c1cccc2cccnc12` [Example 99, N-[6-ethyl-5-(quinolin-8-yl)thieno[2,3-d]pyrimidin-4-yl]-D-phenylalanine], the inhibition at 200 µM was 28.3%.
